Measured values taken from patent publication US20240287138A1, “CYCLIC PEPTIDES FOR INHIBITING TNF RECEPTOR 1 ACTIVITY” (Merck Sharp & Dohme LLC, priority 2023, published 2024).
Numbered stars: 1 amine (or outer) side, 2 acyl side, 3 side chain; on linkers, the order of the positions; unused ones are H or OH. Bridge positions count the residues as written; N and C are the ends. Square brackets hold non-standard residues; d marks the D form. Peptide text beside a SMILES is read from it. Trp(βS-Me,7-OMe) = COc1cccc2c([C@H](C)[C@H](N)C(=O)O)c[nH]c12; Trp(7-CN) = N#Cc1cccc2c(C[C@H](N)C(=O)O)c[nH]c12; Trp(7-Cl) = N[C@@H](Cc1c[nH]c2c(Cl)cccc12)C(=O)O; Ala(pyrimidin-5-yl) = N[C@@H](Cc1cncnc1)C(=O)O; Phe(4-CONH2) = NC(=O)c1ccc(C[C@H](N)C(=O)O)cc1; Phe(4-COOH) = N[C@@H](Cc1ccc(C(=O)O)cc1)C(=O)O; 4Pal(3S-Me) = C[C@@H](c1ccncc1)[C@H](N)C(=O)O; Trp(7-aza) = N[C@@H](Cc1c[nH]c2ncccc12)C(=O)O; Nle(6-COOH) = N[C@@H](CCCCC(=O)O)C(=O)O; Tyr(2-F) = N[C@@H](Cc1ccc(O)cc1F)C(=O)O; X1 = O=C([C@@H]1CC[C@H](N[*:1])C1)[*:2]; Val(3-OH) = CC(C)(O)[C@H](N)C(=O)O; Pip(4-aza) = O=C(O)[C@@H]1CNCCN1; 4Pal = N[C@@H](Cc1ccncc1)C(=O)O; NMeE = CN[C@@H](CCC(=O)O)C(=O)O; dHyp = O=C(O)[C@H]1C[C@H](O)CN1; Ahp(2) = CCCCC[C@H](N)C(=O)O; hSer = N[C@@H](CCO)C(=O)O; αMeS = C[C@](N)(CO)C(=O)O; Nle = CCCC[C@H](N)C(=O)O; Sar = CNCC(=O)O

Tests used:
[1] = biological target: T1, TNFα-induced NF-κB signal transduction pathway (TNFR1 signaling) in THP-1 cells (Homo sapiens, UniProt P19438); experiment: THP-1 Lucia NF-κB reporter cell assay, inhibition of TNFα-induced NF-κB signaling; format: cell-based; details: THP-1 NF-κB Lucia reporter cells, 10 ng/mL TNFα, 16-18 h, secreted luciferase; read-out: THP-1 IC50
T1 sequence (P19438 30-455): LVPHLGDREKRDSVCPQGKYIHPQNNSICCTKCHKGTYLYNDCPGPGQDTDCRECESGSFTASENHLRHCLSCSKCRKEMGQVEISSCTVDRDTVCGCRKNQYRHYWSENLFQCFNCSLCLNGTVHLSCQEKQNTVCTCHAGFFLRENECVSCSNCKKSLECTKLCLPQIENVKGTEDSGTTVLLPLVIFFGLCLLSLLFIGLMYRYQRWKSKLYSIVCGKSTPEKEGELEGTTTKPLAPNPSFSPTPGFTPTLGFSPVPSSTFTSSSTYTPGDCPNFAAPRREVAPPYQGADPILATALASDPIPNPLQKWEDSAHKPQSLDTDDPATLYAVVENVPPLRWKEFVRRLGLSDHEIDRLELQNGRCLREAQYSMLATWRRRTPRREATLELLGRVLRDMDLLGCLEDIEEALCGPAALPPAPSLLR
Summary of the method: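 IC50 from a 4-parameter logistic fit of secreted luciferase luminescence (QUANTI-Luc), normalised to min/max controls. Reporter THP-1 cells were exposed to peptides for 1 h at 37 °C before 10 ng/mL TNFα (final) was added overnight (16–18 h).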

[2] = biological target: T2, human soluble TNFR1 (sTNFR1) (Homo sapiens, UniProt P19438); experiment: Human sTNFR1-peptide displacement assay (LanthaScreen Eu TR-FRET binding assay)
T2 construct: made in house; host or cells: Sf21 (baculovirus)
T2 sequence (P19438 with tags, fused parts or gaps): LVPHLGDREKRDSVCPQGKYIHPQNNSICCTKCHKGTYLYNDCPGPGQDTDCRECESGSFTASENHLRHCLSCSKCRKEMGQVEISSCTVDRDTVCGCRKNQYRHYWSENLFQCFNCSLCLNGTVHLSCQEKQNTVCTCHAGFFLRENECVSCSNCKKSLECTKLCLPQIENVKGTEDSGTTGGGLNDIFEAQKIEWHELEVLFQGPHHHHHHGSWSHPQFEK
Summary of the method: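 Readout is the 665/615 nm TR-FRET ratio (Eu anti-His donor, streptavidin-Alexa647 acceptor), normalized to DMSO and saturating displacer, fit by Morrison-based five-parameter logistic for Kd^app. His-tagged sTNFR1 (1-211) prebound to 100 nM biotinylated peptide SEQ ID NO.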

SMILES	IC50 [1]	Kd [2]
CCCC[C@@H]1NC(=O)[C@@H]2CC[C@@H](C2)NC(=O)[C@H]([C@@H](C)c2c[nH]c3c(OC)cccc23)NC(=O)CN(C)C(=O)[C@H](Cc2ccc(O)cc2F)NC(=O)[C@H](Cc2ccc(C(=O)O)cc2)NC(=O)[C@](C)(CO)NC(=O)[C@H](Cc2c[nH]c3c(Cl)cccc23)NC(=O)[C@H](Cc2ccncc2)NC(=O)[C@H](CC(N)=O)NC(=O)[C@H](CCC(=O)O)N(C)C(=O)[C@H](Cc2c[nH]c3ccccc23)NC(=O)[C@@H]2CNCCN2C(=O)[C@H](Cc2ccncc2)NC1=O [SEQ ID NO. 175] (cyclo([4Pal][Trp(7-Cl)][αMeS][Phe(4-COOH)][Tyr(2-F)][Sar][Trp(βS-Me,7-OMe)][X1][Nle][4Pal][Pip(4-aza)]W[NMeE]N))	0.9 nM	0.22 nM
CCCCC[C@@H]1NC(=O)[C@@H]2CC[C@@H](C2)NC(=O)[C@H]([C@@H](C)c2c[nH]c3c(OC)cccc23)NC(=O)CN(C)C(=O)[C@H](Cc2ccc(C(N)=O)cc2)NC(=O)[C@H](Cc2ccc(C(N)=O)cc2)NC(=O)[C@](C)(CO)NC(=O)[C@H](Cc2c[nH]c3c(C#N)cccc23)NC(=O)[C@H](Cc2ccc(C(=O)O)cc2)NC(=O)[C@H](CC(N)=O)NC(=O)[C@H]2C[C@H](O)CN2C(=O)[C@H](Cc2c[nH]c3ccccc23)NC(=O)[C@H](CCCCC(=O)O)NC(=O)[C@H]([C@@H](C)c2ccncc2)NC1=O [SEQ ID NO. 176] (cyclo([Ahp(2)][4Pal(3S-Me)][Nle(6-COOH)]W[dHyp]N[Phe(4-COOH)][Trp(7-CN)][αMeS][Phe(4-CONH2)][Phe(4-CONH2)][Sar][Trp(βS-Me,7-OMe)][X1]))	1 nM	0.22 nM
CCCC[C@@H]1NC(=O)CSC[C@@H](C(N)=O)NC(=O)[C@H]([C@@H](C)c2c[nH]c3c(OC)cccc23)NC(=O)CN(C)C(=O)[C@H](Cc2ccc(O)cc2)NC(=O)[C@H](Cc2ccc(C(=O)O)cc2)NC(=O)[C@](C)(CO)NC(=O)[C@H](Cc2c[nH]c3c(Cl)cccc23)NC(=O)[C@H](Cc2ccncc2)NC(=O)[C@H](CC(N)=O)NC(=O)[C@H](CCC(=O)O)N(C)C(=O)[C@H](Cc2c[nH]c3ncccc23)NC(=O)[C@H](C(C)(C)O)NC(=O)[C@H](Cc2cncnc2)NC1=O [SEQ ID NO. 177] ({CH2CO}-[Nle][Ala(pyrimidin-5-yl)][Val(3-OH)][Trp(7-aza)][NMeE]N[4Pal][Trp(7-Cl)][αMeS][Phe(4-COOH)]Y[Sar][Trp(βS-Me,7-OMe)]C-NH2; thioether N-14)	3.3 nM	0.54 nM
CCCC[C@@H]1NC(=O)[C@@H]2CC[C@@H](C2)NC(=O)[C@H]([C@@H](C)c2c[nH]c3c(OC)cccc23)NC(=O)CN(C)C(=O)[C@H](Cc2c[nH]cn2)NC(=O)[C@H](Cc2ccc(C(=O)O)cc2)NC(=O)[C@](C)(CO)NC(=O)[C@H](Cc2c[nH]c3c(Cl)cccc23)NC(=O)[C@H](Cc2ccncc2)NC(=O)[C@H](CC(N)=O)NC(=O)[C@H](CCC(=O)O)N(C)C(=O)[C@H](Cc2c[nH]c3ccccc23)NC(=O)[C@@H]2CNCCN2C(=O)[C@H](Cc2ccncc2)NC1=O [SEQ ID NO. 178] (cyclo([4Pal][Trp(7-Cl)][αMeS][Phe(4-COOH)]H[Sar][Trp(βS-Me,7-OMe)][X1][Nle][4Pal][Pip(4-aza)]W[NMeE]N))	3.3 nM	0.29 nM
CCCC[C@@H]1NC(=O)[C@@H]2CC[C@@H](C2)NC(=O)[C@H]([C@@H](C)c2c[nH]c3c(OC)cccc23)NC(=O)CN(C)C(=O)[C@H](Cc2ccc(O)cc2)NC(=O)[C@H](Cc2ccc(C(=O)O)cc2)NC(=O)[C@](C)(CO)NC(=O)[C@H](Cc2c[nH]c3c(Cl)cccc23)NC(=O)[C@H](Cc2ccncc2)NC(=O)[C@H](CCOC)NC(=O)[C@H](CCC(=O)O)N(C)C(=O)[C@H](Cc2c[nH]c3ccccc23)NC(=O)[C@@H]2CNCCN2C(=O)[C@H](Cc2ccncc2)NC1=O [SEQ ID NO. 181] (cyclo([4Pal][Trp(7-Cl)][αMeS][Phe(4-COOH)]Y[Sar][Trp(βS-Me,7-OMe)][X1][Nle][4Pal][Pip(4-aza)]W[NMeE][hSer](Me)))	1.2 nM	0.34 nM
